From patent US20030232986A1, “Inhibitors of caspases” (Vertex Pharmaceuticals Incorporated, priority 1998, published 2003)
pIC50, pKi: −log10 of the molar value. Where a SMILES comes first, the peptide text is derived from it. The star is where a group is joined. Isovaleryl = CC(C)CC(=O)*; 4Abz = Nc1ccc(C(=O)O)cc1

Experiments:
[1] = tested on: Human Peripheral Blood Mononuclear Cells (PBMC), mature IL-1β; experiment: PBMC cell assay: IL-1β assay with human peripheral blood mononuclear cells; assay type: cell-based; conditions: LPS-stimulated human PBMC, mature IL-1β in supernatant by ELISA
How it was run: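 Donor PBMC (suspension at 6×10^6 cells/ml) or adherent-enriched monocytes were stimulated with 5 ng/ml LPS (final) alongside 5–6 compound dilutions bracketing the ICE Ki, at 0.1% DMSO final, for 16–18 hr at 37° C, 5% CO2. Mature IL-1β in supernatants was measured by ELISA; IC50 was calculated relative to LPS-only controls.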

[2] = target: T1, Caspase-1 (Homo sapiens, UniProt P29466); experiment: Caspase-1 enzyme inhibition (Ki); assay type: biochemical; conditions: substrate Suc-YVAD-pNA 80 μM, 37° C., pH 7.5
T1 sequence (P29466 120-297 limits assumed): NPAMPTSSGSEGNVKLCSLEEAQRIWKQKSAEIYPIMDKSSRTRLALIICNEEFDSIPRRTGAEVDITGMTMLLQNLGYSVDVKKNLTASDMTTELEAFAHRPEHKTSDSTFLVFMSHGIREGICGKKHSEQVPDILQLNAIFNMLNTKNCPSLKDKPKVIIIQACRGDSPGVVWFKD
T1 sequence (P29466 317-404 limits assumed): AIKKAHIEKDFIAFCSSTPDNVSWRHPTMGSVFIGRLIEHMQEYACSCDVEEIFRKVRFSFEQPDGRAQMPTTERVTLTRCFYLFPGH
How it was run: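 Ki obtained by fitting rate versus inhibitor concentration to the Morrison tight-binding equation for competitive inhibitors, with pNA release read at 405 nm at 37 °C. Substrate Suc-YVAD-pNA (80 μM final) added after 15 min enzyme–inhibitor preincubation in Tris pH 7.5 buffer with DTT and CHAPS.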

[3] = tested on: Human whole blood, IL-1β production; experiment: Whole blood assay for IL-1β production; assay type: cell-based; conditions: LPS-stimulated whole blood, IL-1β by ELISA
How it was run: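 LPS-stimulated (5.0 ng/ml final) human whole blood incubated with test compound in saline (or plasma/PBS-5% DMSO for hydrophobic compounds) at 30° C for 16-18 hr. Plasma IL-1β then measured by ELISA at 1:200 dilution, against no-LPS, no-inhibitor and vehicle controls.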

SMILES	pKi [2]	pIC50 [3]	pIC50 [1]
C[C@H](NC(=O)c1ccc(C(N)=O)cc1)C(=O)N1CCC[C@H]1C(=O)N[C@H](C=O)CC(=O)O [Example 7u]	6.00 to 8.00	5.12 to 5.60	< 5.70
CC(C)CC(=O)Nc1ccc(C(=O)N[C@@H](C)C(=O)N2CCC[C@H]2C(=O)N[C@H](C=O)CC(=O)O)cc1 [Example 7v] ({Isovaleryl-4Abz}-Ala-Pro-Asp-aldehyde)	6.00 to 8.00	> 5.60	< 5.70
Cc1cc(C(=O)N[C@@H](C)C(=O)N2CCC[C@H]2C(=O)N[C@H](C=O)CC(=O)O)cc(Cl)c1N [Example 7w]	> 8.00	> 5.60	5.70 to 6.00
C[C@H](NC(=O)c1ccc(NS(C)(=O)=O)cc1)C(=O)N1CCC[C@H]1C(=O)N[C@H](C=O)CC(=O)O [Example 7x]	6.00 to 8.00	< 5.12	< 5.70
C[C@H](NC(=O)c1ccc(N)c(OC(F)(F)F)c1)C(=O)N1CCC[C@H]1C(=O)N[C@H](C=O)CC(=O)O [Example 7y]	6.00 to 8.00	< 5.12	< 5.70
CC(=O)Nc1c(Cl)cc(C(=O)N[C@@H](C)C(=O)N2CCC[C@H]2C(=O)N[C@H](C=O)CC(=O)O)cc1Cl [Example 7z]	6.00 to 8.00	> 5.60	5.70 to 6.00
COc1ccc(C(=O)N[C@H](C(=O)N2C[C@H](NC(C)=O)C[C@H]2C(=O)N[C@H](C=O)CC(=O)O)C(C)C)cc1 [Example 9a]	6.00 to 8.00	5.12 to 5.60	6.00 to 6.30
COc1ccc(C(=O)N[C@H](C(=O)N2C[C@H](NC(=O)NC(C)C)C[C@H]2C(=O)N[C@H](C=O)CC(=O)O)C(C)C)cc1 [Example 9b]	> 8.00	5.12 to 5.60	6.00 to 6.30
CC(C)NC(=O)N[C@@H]1C[C@@H](C(=O)N[C@H](C=O)CC(=O)O)N(C(=O)[C@@H](NC(=O)c2nccc3ccccc23)C(C)C)C1 [Example 9c]	> 8.00	> 5.60	> 6.30
CC(C)[C@H](NC(=O)c1nccc2ccccc12)C(=O)N1C[C@H](NS(C)(=O)=O)C[C@H]1C(=O)N[C@H](C=O)CC(=O)O [Example 9d]	> 8.00	> 5.60	6.00 to 6.30
COC(=O)N[C@@H]1C[C@@H](C(=O)N[C@H](C=O)CC(=O)O)N(C(=O)[C@@H](NC(=O)c2ccc(OC)cc2)C(C)C)C1 [Example 9e]	> 8.00	5.12 to 5.60	5.70 to 6.00
COC(=O)N[C@@H]1C[C@@H](C(=O)N[C@H](C=O)CC(=O)O)N(C(=O)[C@@H](NC(=O)c2nccc3ccccc23)C(C)C)C1 [Example 9f]	> 8.00	> 5.60	6.00 to 6.30
CC(=O)N[C@@H]1C[C@@H](C(=O)N[C@H](C=O)CC(=O)O)N(C(=O)[C@@H](NC(=O)c2nccc3ccccc23)C(C)C)C1 [Example 9g]	> 8.00	5.12 to 5.60	5.70 to 6.00
Cc1cc(C(=O)N[C@H](C(=O)N2CCNCC2C(=O)N[C@H](C=O)CC(=O)O)C(C)C)cc(C)c1O (stereo partly drawn) [Example 15a]	> 8.00	5.12 to 5.60	< 5.70
CC(C)[C@H](NC(=O)c1nccc2ccccc12)C(=O)N1CCNCC1C(=O)N[C@H](C=O)CC(=O)O (stereo partly drawn) [Example 15b]	> 8.00	5.12 to 5.60	5.70 to 6.00
COc1ccc(C(=O)N[C@H](C(=O)N2CCNC[C@H]2C(=O)N[C@H](C=O)CC(=O)O)C(C)C)cc1 [Example 15c]	> 8.00	> 5.60	6.00 to 6.30
C[C@H](NC(=O)c1ccc(N)c(Cl)c1)C(=O)N1CCNC[C@H]1C(=O)N[C@H](C=O)CC(=O)O [Example 16b]	> 8.00	> 5.60	5.70 to 6.00
COCC(=O)N1CCN(C(=O)[C@H](C)NC(=O)c2nccc3ccccc23)[C@H](C(=O)N[C@H](C=O)CC(=O)O)C1 [Example 18a]	6.00 to 8.00	> 5.60	6.00 to 6.30
CC(C)S(=O)(=O)N1CCN(C(=O)[C@H](C)NC(=O)c2nccc3ccccc23)[C@H](C(=O)N[C@H](C=O)CC(=O)O)C1 [Example 18b]	> 8.00	> 5.60	6.00 to 6.30
C[C@H](NC(=O)c1nccc2ccccc12)C(=O)N1CCN(C(N)=O)C[C@H]1C(=O)N[C@H](C=O)CC(=O)O [Example 18c]	6.00 to 8.00	> 5.60	6.00 to 6.30
CC(=O)N1CCN(C(=O)[C@H](C)NC(=O)c2nccc3ccccc23)[C@H](C(=O)N[C@H](C=O)CC(=O)O)C1 [Example 18d]	6.00 to 8.00	> 5.60	6.00 to 6.30
CC(C)NC(=O)N1CCN(C(=O)[C@H](C)NC(=O)c2nccc3ccccc23)[C@H](C(=O)N[C@H](C=O)CC(=O)O)C1 [Example 18e]	> 8.00	> 5.60	5.70 to 6.00

The next lines start with results.

pKi [2]	pIC50 [3]	SMILES	pIC50 [1]
> 8.00	> 5.60	CC(C)(C)[C@H](NC(=O)c1nccc2ccccc12)C(=O)N1CCC[C@H]1C(=O)N[C@H](C=O)CC(=O)O [Example 20a]	6.00 to 6.30
> 8.00	< 5.12	CC(C)(C)[C@H](NC(=O)c1cccc2ccccc12)C(=O)N1CCC[C@H]1C(=O)N[C@H](C=O)CC(=O)O [Example 20b]	6.00 to 6.30
> 8.00	5.12 to 5.60	CCC(C)[C@H](NC(=O)c1nccc2ccccc12)C(=O)N1CCC[C@H]1C(=O)N[C@H](C=O)CC(=O)O (stereo partly drawn) [Example 20c]	5.70 to 6.00
6.00 to 8.00	5.12 to 5.60	C[C@@H](O)[C@H](NC(=O)c1nccc2ccccc12)C(=O)N1CCC[C@H]1C(=O)N[C@H](C=O)CC(=O)O [Example 20d]	< 5.70
> 8.00	5.12 to 5.60	CC[C@H](NC(=O)c1nccc2ccccc12)C(=O)N1CCC[C@H]1C(=O)N[C@H](C=O)CC(=O)O [Example 20e]	5.70 to 6.00
> 8.00	> 5.60	CCC(C)[C@H](NC(=O)c1cc(Cl)c(O)c(Cl)c1)C(=O)N1CCC[C@H]1C(=O)N[C@H](C=O)CC(=O)O (stereo partly drawn) [Example 20k]	> 6.30
> 8.00	> 5.60	C[C@@H](O)[C@H](NC(=O)c1cc(Cl)c(O)c(Cl)c1)C(=O)N1CCC[C@H]1C(=O)N[C@H](C=O)CC(=O)O [Example 20l]	6.00 to 6.30
> 8.00	> 5.60	O=C[C@H](CC(=O)O)NC(=O)[C@@H]1CCCN1C(=O)[C@H](Cc1cccnc1)NC(=O)c1cc(Cl)c(O)c(Cl)c1 [Example 20n]	6.00 to 6.30
> 8.00	> 5.60	CSC[C@H](NC(=O)c1cc(Cl)c(O)c(Cl)c1)C(=O)N1CCC[C@H]1C(=O)N[C@H](C=O)CC(=O)O [Example 20o]	> 6.30
> 8.00	> 5.60	CS(=O)(=O)CC[C@H](NC(=O)c1cc(Cl)c(O)c(Cl)c1)C(=O)N1CCC[C@H]1C(=O)N[C@H](C=O)CC(=O)O [Example 20p, 3-({1-[2-(3,5-dichloro-4-hydroxy-benizoylamino)-4-methanesulfonyl-butyryl]-pyrrolidine-2-carbonyl}-amino)-4-oxo-butyric acid]	> 6.30
6.00 to 8.00	< 5.12	CCC(C)[C@H](NC(=O)c1ccc(N)c(Cl)c1)C(=O)N1CCC[C@H]1C(=O)N[C@H](C=O)CC(=O)O (stereo partly drawn) [Example 20q]	6.00 to 6.30
6.00 to 8.00	5.12 to 5.60	CS(=O)(=O)C[C@H](NC(=O)c1nccc2ccccc12)C(=O)N1CCC[C@H]1C(=O)N[C@H](C=O)CC(=O)O [Example 20r, 3-[(1-{2-[(isoquinoline-1-carbonyl)-amino]-3-methanesulfonyl-propionyl}-pyrrolidine-2-carbonyl)-amino]-4-oxo-butyric acid]	6.00 to 6.30
> 8.00	> 5.60	CS(=O)(=O)CC(NC(=O)c1cc(Cl)c(O)c(Cl)c1)C(=O)N1CCCC1C(=O)NC(C=O)CC(=O)O (stereo not drawn) [Example 20s, 3-({1-[2-(3,5-dichloro-4-hydroxy-benzoylamino)-3-methanesulfonyl-propionyl]-pyrrolidine-2-carbonyl}-amino)-4-oxo-butyric acid]	5.70 to 6.00
6.00 to 8.00	> 5.60	CS(=O)(=O)C[C@H](NC(=O)c1ccc(N)c(Cl)c1)C(=O)N1CCC[C@H]1C(=O)N[C@H](C=O)CC(=O)O [Example 20t]	6.00 to 6.30
> 8.00	> 5.60	CC(NC(=O)c1ccc(N)c(Cl)c1)C(=O)N1N=CC(C)C1C(=O)NC(C=O)CC(=O)O (stereo not drawn) [Example 23g, 3-({2-[2-(4-Amino-3-chloro-benzoylamino)-propionyl]-4-methyl-3,4-dihydro-2H-pyrazole-3-carbonyl}-amino)-4-oxo-butyric acid]	5.70 to 6.00
